Data from patent US20100130737A1, “Regulating Agent of GPR34 Receptor Function” (TAKEDA PHARMACEUTICAL COMPANY LIMITED, priority 2005, published 2010).

Row | melting point | Structure (SMILES)
1 | 255 °C | O=C(N[C@@H](Cc1ccc(OCc2ccccc2)cc1)C(=O)O)c1cn2ccc(-c3ccc(Cl)cc3)cc2n1 [Example E8, O-Benzyl-N-{[7-(4-chlorophenyl)imidazo[1,2-a]pyridin-2-yl]carbonyl}tyrosine]
2 | 252 °C | O=C(NC(Cc1ccc(OCc2cccc(F)c2)cc1)C(=O)O)c1cn2cc(-c3ccc(Cl)cc3)ccc2n1 (stereo not shown) [Example E10]
3 | 266 °C | O=C(N[C@@H](Cc1ccc(F)cc1)C(=O)O)c1cn2cc(-c3ccc(Cl)cc3)ccc2n1 [Example E11, N-{[6-(4-Chlorophenyl)imidazo[1,2-a]pyridin-2-yl]carbonyl}-4-fluorophenylalanine]
4 | 206 °C | O=C(O)CN(Cc1ccc(OCc2ccc(F)cc2)cc1)C(=O)c1cn2cc(-c3ccc(Cl)cc3)ccc2n1 [Example E13, N-{[6-(4-Chlorophenyl)imidazo[1,2-a]pyridin-2-yl]carbonyl}-N-{4-[(4-fluorobenzyl)oxy]benzyl}glycine]
5 | 241 °C | O=C(NC(Cc1ccc(OCc2ccccc2)cc1)c1nnn[nH]1)c1cn2cc(-c3ccc(Cl)cc3)ccc2n1 (stereo not shown) [Example E14, N-[2-[4-(Benzyloxy)phenyl]-1-(1H-tetrazol-5-yl)ethyl]-6-(4-chlorophenyl)imidazo[1,2-a]pyridine-2-carboxamide]
6 | 186 °C | O=C(NC(Cc1ccc(OCc2ccccc2)cc1)c1nnn[nH]1)c1cn2nc(-c3ccc(Cl)cc3)ccc2n1 (stereo not shown) [Example E15, N-[2-[4-(Benzyloxy)phenyl]-1-(1H-tetrazol-5-yl)ethyl]-6-(4-chlorophenyl)imidazo[1,2-b]pyridazine-2-carboxamide]
7 | 276 °C | O=C(N[C@@H](Cc1ccc(OCC2CC2)cc1)C(=O)O)c1cn2cc(-c3ccc(Cl)cc3)ccc2n1 [Example E17, N-{[6-(4-Chlorophenyl)imidazo[1,2-a]pyridin-2-yl]carbonyl}-O-(cyclopropylmethyl)tyrosine]
8 | 244 °C | O=C(N[C@@H](Cc1ccc(OCc2ccccc2)cc1)C(=O)O)c1cn2cc(-c3cccnc3)ccc2n1 [Example E20, O-Benzyl-N-[(6-(pyridin-3-yl)imidazo[1,2-a]pyridine-2-yl)carbonyl]tyrosine]
9 | 268 °C | O=C(N[C@@H](Cc1ccc(OCc2ccccc2)cc1)C(=O)O)c1cn2cc(-c3ccncc3)ccc2n1 [Example E21, O-Benzyl-N-[(6-(pyridine-4-yl)imidazo[1,2-a]pyridin-2-yl)carbonyl]tyrosine]
10 | 167 °C | O=C(NC(Cc1ccc(OCc2ccccc2)cc1)c1noc(=O)[nH]1)c1cn2cc(-c3ccc(Cl)cc3)ccc2n1 (stereo not shown) [Example E30, N-[2-[4-(Benzyloxy)phenyl]-1-(5-oxo-4,5-dihydro-1,2,4-oxadiazol-3-yl)ethyl]-6-(4-chlorophenyl)imidazo[1,2-a]pyridine-2-carboxamide]
11 | 262 °C | O=C(N[C@@H](Cc1ccc(OCc2ccoc2)cc1)C(=O)O)c1cn2cc(-c3ccc(Cl)cc3)ccc2n1 [Example E31, N-{[6-(4-Chlorophenyl)imidazo[1,2-a]pyridin-2-yl]carbonyl}-O-(3-furylmethyl)tyrosine]
12 | 220 °C | O=C(N[C@@H](Cc1ccc(OCc2ccoc2)cc1)C(=O)O)c1cn2nc(-c3ccc(Cl)cc3)ccc2n1 [Example E32, N-{[6-(4-Chlorophenyl)imidazo[1,2-b]pyridazin-2-yl]carbonyl}-O-(3-furylmethyl)tyrosine]
13 | 243 °C | O=C(N[C@@H](Cc1ccc(OCc2ccoc2)cc1)C(=O)O)c1cn2ccc(-c3ccc(Cl)cc3)cc2n1 [Example E33, N-{[7-(4-Chlorophenyl)imidazo[1,2-a]pyridin-2-yl]carbonyl}-O-(3-furylmethyl)tyrosine]
14 | 262 to 263 °C | O=C(N[C@@H](Cc1ccc(OCc2ccccc2)cc1)C(=O)O)c1cn2cc(/C=C/c3ccccc3)ccc2n1 [Example E34, O-Benzyl-N-({6-[(E)-2-phenylethenyl]imidazo[1,2-a]pyridin-2-yl}carbonyl)tyrosine]
15 | 248 to 249 °C | Cc1cc2nc(C(=O)N[C@@H](Cc3ccc(OCc4ccccc4)cc3)C(=O)O)cn2cc1-c1ccc(Cl)cc1 [Example E35, O-Benzyl-N-{[6-(4-chlorophenyl)-7-methylimidazo[1,2-a]pyridin-2-yl]carbonyl}tyrosine]
16 | 250 to 251 °C | Cc1cc2nc(C(=O)NC(Cc3ccc(OCc4ccccc4)cc3)C(=O)O)cn2c(C)c1-c1ccc(Cl)cc1 (stereo not shown) [Example E36]

Row | melting point | Structure (SMILES)
17 | 213 to 214 °C | O=C(O)CN(Cc1ccc(OCc2ccccc2)cc1)C(=O)c1cn2cc(-c3ccc(Cl)cc3)ccc2n1 [Example E39, N-[4-(Benzyloxy)benzyl]-N-{[6-(4-chlorophenyl)imidazo[1,2-a]pyridin-2-yl]carbonyl}glycine]
18 | 237 to 239 °C | O=C(N[C@@H](Cc1ccc(OCc2ccccc2)cc1)C(=O)O)c1cn2cc(-c3ccc(Cl)cc3Cl)ccc2n1 [Example E40, O-Benzyl-N-{[6-(2,4-dichlorophenyl)imidazo[1,2-a]pyridin-2-yl]carbonyl}tyrosine]
19 | 262 to 263 °C | COc1ccc(/C=C/c2ccc3nc(C(=O)N[C@@H](Cc4ccc(OCc5ccccc5)cc4)C(=O)O)cn3c2)cc1 [Example E43, O-Benzyl-N-({6-[(E)-2-(4-methoxyphenyl)ethenyl]imidazo[1,2-a]pyridin-2-yl}carbonyl)tyrosine]
20 | 270 to 271 °C | O=C(NC(Cc1ccc(OCc2ccccc2)cc1)C(=O)O)c1cn2cc(-c3ccc(OC(F)(F)F)cc3)ccc2n1 (stereo not shown) [Example E44]
21 | 219 °C | COc1cc(F)c(-c2ccc3nc(C(=O)N[C@@H](Cc4ccc(OCc5ccccc5)cc4)C(=O)O)cn3c2)c(F)c1 [Example E46, O-Benzyl-N-{[6-(2,6-difluoro-4-methoxyphenyl)imidazo[1,2-a]pyridin-2-yl]carbonyl}tyrosine]
22 | 241 to 243 °C | O=C(N[C@@H](Cc1ccc(OCc2ccccc2)cc1)C(=O)O)c1ccc2nc(-c3ccc(Cl)cc3)c(Cl)n2c1 [Example E50, O-Benzyl-N-{[3-chloro-2-(4-chlorophenyl)imidazo[1,2-a]pyridin-6-yl]carbonyl}tyrosine]
23 | 186 °C | O=C(O)CN(Cc1ccc(OCc2ccccc2)cc1)C(=O)c1cn2ccc(-c3ccc(Cl)cc3)cc2n1 [Example E52, N-[4-(Benzyloxy)benzyl]-N-{[7-(4-chlorophenyl)imidazo[1,2-a]pyridin-2-yl]carbonyl}glycine]
24 | 187 °C | O=C(O)CN(Cc1ccc(OCc2ccsc2)cc1)C(=O)c1cn2ccc(-c3ccc(Cl)cc3)cc2n1 [Example E53]
25 | 244 to 245 °C | Cc1c(-c2ccc(Cl)cc2)nc2ccc(C(=O)N[C@@H](Cc3ccc(OCc4ccccc4)cc3)C(=O)O)cn12 [Example E55, O-Benzyl-N-{[2-(4-chlorophenyl)-3-methylimidazo[1,2-a]pyridin-6-yl]carbonyl}tyrosine]
26 | 248 to 249 °C | O=C(N[C@@H](Cc1ccc(OCc2ccccc2)cc1)C(=O)O)c1cn2ccc(-c3ccc(Cl)cc3)cc2n1 [Example E56, O-Benzyl-N-{[7-(4-chlorophenyl)imidazo[1,2-a]pyridin-2-yl]carbonyl}-L-tyrosine]
27 | 243 °C (dec.) | O=C(N[C@@H](Cc1ccc(OCc2ccccc2)cc1)C(=O)O)c1cn2ccc(C#Cc3ccccc3)cc2n1 [Example E58, O-Benzyl-N-{[7-(phenylethynyl)imidazo[1,2-a]pyridin-2-yl]carbonyl}tyrosine]
28 | 245 to 246 °C | Cc1cccc(COc2ccc(C[C@H](NC(=O)c3cn4ccc(-c5ccc(Cl)cc5)cc4n3)C(=O)O)cc2)c1 [Example E60, N-{[7-(4-Chlorophenyl)imidazo[1,2-a]pyridin-2-yl]carbonyl}-O-(3-methylbenzyl)tyrosine]
29 | 239 to 240 °C | COc1cccc(COc2ccc(C[C@H](NC(=O)c3cn4ccc(-c5ccc(Cl)cc5)cc4n3)C(=O)O)cc2)c1 [Example E61, N-{[7-(4-Chlorophenyl)imidazo[1,2-a]pyridin-2-yl]carbonyl)-O-(3-methoxybenzyl)tyrosine]
30 | 243 °C (dec.) | O=C(NC(Cc1ccc(OCc2ccc(F)cc2)cc1)C(=O)O)c1cn2ccc(C#Cc3ccccc3)cc2n1 (stereo not shown) [Example E62]
31 | 263 °C | O=C(N[C@@H](Cc1ccc(OCc2ccc(C(F)(F)F)cc2)cc1)C(=O)O)c1cn2ccc(-c3ccc(Cl)cc3)cc2n1 [Example E66, N-{[7-(4-Chlorophenyl)imidazo[1,2-a]pyridin-2-yl]carbonyl}-O-[4-(trifluoromethyl)benzyl]tyrosine]
